# Measurements published in patent US20210322375A1, “COMBINATION DRUG FORMULATIONS FOR TREATING PATIENTS WITH CARDIOVASCULAR DISEASE AND ASSOCIATED CONDITIONS” (Esperion Therapeutics, Inc., priority 2018, published 2021).
# How the values were obtained:
# [1] = tested on: hypercholesterolemic patients; test: Phase 2b randomized double-blind trial: percent change from baseline to week 12 in lipids and CRP; format: in vivo, human
# Protocol: Brief Description of Clinical Study and Results.
# Study Objectives. The primary objective was to assess the LDL-C-lowering effect of ETC-1002 monotherapy (120 mg or 180 mg daily) versus EZE monotherapy in hypercholesterolemic patients with or without statin intolerance. Secondary objectives were to characterize the dose response of ETC-1002, evaluate the impact of treatment on other lipid and cardiometabolic biomarkers, compare the LDL-C-lowering effect of ETC-1002 plus EZE combination therapy with EZE monotherapy, and characterize the safety and tolerability of the treatment regimens, including muscle-related adverse events (AEs).
# Overall Study Design and Plan. […] 16, 2013 to Aug.
# LDL-C was calculated using the Friedewald equation.
# Efficacy Endpoints. The primary endpoint was the percent change from baseline to week 12 in calculated LDL-C in patients treated with ETC-1002 monotherapy versus those treated with EZE alone. Secondary endpoints included the dose-response relationship between ETC-1002 and the percent change in LDL-C from baseline to week 12, the percent change in LDL-C from baseline to week 12 in patients treated with ETC-1002 plus EZE versus those treated with EZE alone, and the percent change from baseline to week 12 for all treatment groups in LDL particle number, apolipoprotein B, total cholesterol, non-high-density lipoprotein cholesterol (non-HDL-C), HDL-C, HDL particle number, apolipoprotein A-I, triglycerides, very-low-density lipoprotein (VLDL) particle number, and high-sensitivity C-reactive protein (CRP). Lipoprotein particle number was measured using nuclear magnetic resonance […].
# Statistical Plan and Analyses. The study was designed to include 322 patients: 92 patients in each monotherapy group and 23 patients in each combination therapy group. Sample size calculations were performed using nQuery Advisor® version 7.0 (Statistical Solutions, Cork, Ireland). The sample size of 92 patients per monotherapy group was expected to provide 90% power to detect a difference of 10% in the absolute percent change from baseline to week 12 in LDL-C between either ETC-1002 treatment group and the EZE monotherapy group. This calculation was based on a 2-sided t test at the 5% level of significance and assumed a common standard deviation of 15% in the statin-tolerant patients and 22% in the statin-intolerant patients with a dropout rate of 15%.
# An analysis of covariance was used to compare each ETC-1002 treatment group with EZE monotherapy for each of the efficacy endpoints. The primary model included the effects of treatment and statin intolerance and the baseline value as a covariate. Baseline was defined as the mean of values from weeks −1 and 0 for LDL-C, non-HDL-C, total cholesterol, HDL-C, and triglycerides. For all other lipid and biomarker measures, baseline was defined as the last value before the first dose of study drug. Missing values at week 12 were imputed using the last-observation-carried-forward procedure. When LDL-C could not be calculated (i.e., triglycerides >400 mg/dL), beta-quantification measurements were used to determine LDL-C values. Least-squares (LS) means and standard errors were obtained for each treatment group; differences in LS means and p-values were obtained for the treatment comparisons. Graphical methods (e.g., normal probability plot and histogram of residuals, plot of residuals vs. predicted values) or analytical methods (e.g., Shapiro-Wilk test), or both, were used to assess the model assumptions. Because of departures from normality observed in the parameters of triglycerides, CRP, and VLDL particle number, nonparametric analyses were performed for these measures, with p-values obtained from the Wilcoxon rank-sum test and median values presented.
# Percent changes from baseline in LDL-C also were summarized by statin-tolerance subgroup. […]
# [2] = tested on: hypercholesterolemic patients; test: Phase 2b trial: treatment-emergent adverse events and laboratory safety
# From the text: Study Population. Medically stable, hypercholesterolemic men and women aged 18 through 80 years with a body mass index between 18 to 45 kg/m^2 were included in the study. […] The study population included both statin-tolerant and statin-intolerant participants. Statin intolerance was defined as the inability to tolerate ≥2 statins because of muscle-related symptoms such as pain, weakness, or cramping that began or increased during statin therapy and resolved on statin discontinuation. At least 1 statin must have been administered at the lowest approved daily dose, defined as rosuvastatin 5 mg, atorvastatin 10 mg, simvastatin 10 mg, lovastatin 20 mg, pravastatin 40 mg, fluvastatin 40 mg, or pitavastatin 2 mg. Treatment with less than the lowest approved daily dose of a statin (i.e., skipping days) was considered equivalent to not tolerating 1 statin at the lowest approved daily dose.
# Overall Study Design and Plan. […] Patients underwent a 5-week washout of all lipid-regulating drugs and dietary supplements and abstained from these drugs and supplements throughout the study. Patients also underwent a 5-week patient-only-blinded placebo run-in during the screening period (week −5 to week 0). This single-blind placebo run-in period was used to eliminate patients with muscle-related AEs during placebo treatment. Patients reporting new or worsening, unexplained muscle-related AEs during this run-in period were excluded from the study.
# Patients were stratified (1:1) by history of statin intolerance and randomized at week 0 in a 4:4:4:1:1 ratio to once-daily treatment with capsules containing ETC-1002 120 mg, ETC-1002 180 mg, EZE, ETC-1002 120 mg plus EZE, or ETC-1002 180 mg plus EZE. […] A contract laboratory (Medpace Inc., Cincinnati, Ohio), performed all clinical laboratory tests. LDL-C was calculated using the Friedewald equation. Phlebotomy was performed after a minimum 12-hour fast (water was allowed) and only if the patient took their dose of study drug the previous day.
# Safety Endpoints. The safety of ETC-1002 was assessed using treatment-emergent AEs; hematology, serum chemistry, and urinalysis laboratory values; physical examination findings; vital sign measurements; electrocardiogram (ECG) readings; weight; and ankle and waist circumference measurements. AEs were coded using the Medical Dictionary for Regulatory Activities version 16.0 and evaluated by the investigator for severity and relation to study drug. Muscle-related AEs were defined as those from the system organ class of musculoskeletal and connective tissue disorders, except for those that were not obviously muscle related. Terms included in the muscle-related AE analysis were selected from this system organ class after database lock and before unblinding.
# Safety analyses were performed on the safety population, which included randomized patients who received at least 1 dose of study drug. Baseline patient characteristics were summarized for the safety population by treatment group and statin-tolerance subgroup.
# Muscle-related AEs also were summarized by statin-tolerance subgroup.
# [3] = EZE 10 mg daily, mITT n = 98, LS mean ± SE
# [4] = EZE 10 mg daily, mITT n = 98, median (interquartile range)
# [5] = EZE 10 mg daily, safety population n = 99
# [6] = statin-intolerant patients, EZE 10 mg, n = 51
# [7] = statin-tolerant patients, EZE 10 mg, n = 48
smiles,measurement,setting,value
"O=C1[C@H](CC[C@H](O)c2ccc(F)cc2)[C@@H](c2ccc(O)cc2)N1c1ccc(F)cc1 [EZE, (3R,4S)-1-(4-fluorophenyl)-3-[(3S)-3-(4-fluorophenyl)-3-hydroxypropyl]-4-(4-hydroxyphenyl)azetidin-2-one, reference compound]","Apolipoprotein A-I, percent change from baseline to week 12",[1]; [3],2.0 ± 1.1%
same,"Apolipoprotein B, percent change from baseline to week 12",[1]; [3],−15.2 ± 1.2%
same,"HDL particle number, percent change from baseline to week 12",[1]; [3],6.7 ± 1.3%
same,"HDL-C, percent change from baseline to week 12",[1]; [3],5.0 ± 1.4%
same,"LDL particle number, percent change from baseline to week 12",[1]; [3],−12.7 ± 1.7%
same,"LDL-C, percent change from baseline to week 12",[1]; [3],−21.2 ± 1.3%
same,"Non-HDL-C, percent change from baseline to week 12",[1]; [3],−18.7 ± 1.2%
same,"Total cholesterol, percent change from baseline to week 12",[1]; [3],−14.3 ± 0.9%
same,"CRP, percent change from baseline to week 12",[1]; [4],−10.5 (59.0) %
same,"Triglycerides, percent change from baseline to week 12",[1]; [4],−7.0 (34.9) %
same,"VLDL particle number, percent change from baseline to week 12",[1]; [4],−12.6 (63.4) %
same,CRP reduction,[1]; EZE alone,10%
same,HDL-C increase,"[1]; EZE alone, week 12",5%
same,"ALT or AST, or both, increased >3 times the upper limit of normal at any measurement",[2]; EZE,1 patient
same,Serious AE reported (event),[2]; EZE,transient ischemic attack
same,"ALT increased, patients",[2]; [5],1 (1%) n (%)
same,"AST increased, patients",[2]; [5],0 n (%)
same,"Any AE(s), patients",[2]; [5],53 (54%) n (%)
same,"Arthralgia, patients",[2]; [5],4 (4%) n (%)
same,"Back pain, patients",[2]; [5],8 (8%) n (%)
same,"Blood CK increased, patients",[2]; [5],1 (1%) n (%)
same,"Constipation, patients",[2]; [5],1 (1%) n (%)
same,"Discontinuation due to AE(s), patients",[2]; [5],8 (8%) n (%)
same,"Headache, patients",[2]; [5],1 (1%) n (%)
same,"Myalgia, patients",[2]; [5],6 (6%) n (%)
same,"Nasopharyngitis, patients",[2]; [5],4 (4%) n (%)
same,"Serious AE(s), patients",[2]; [5],1 (1%) n (%)
same,"Study drug-related AE(s), patients",[2]; [5],19 (19%) n (%)
same,"Upper respiratory tract infection, patients",[2]; [5],1 (1%) n (%)
same,"Urinary tract infection, patients",[2]; [5],6 (6%) n (%)
same,"Myalgia, patients, entire study population",[2]; EZE alone,6%
same,"Any muscle-related AE, patients",[2]; [6],9 (18%) n (%)
same,"Muscle spasms, patients",[2]; [6],1 (2%) n (%)
same,"Muscle-related AE leading to discontinuation, patients",[2]; [6],5 (10%) n (%)
same,"Muscular weakness, patients",[2]; [6],1 (2%) n (%)
same,"Musculoskeletal chest pain, patients",[2]; [6],0 n (%)
same,"Musculoskeletal stiffness, patients",[2]; [6],1 (2%) n (%)
same,"Myalgia, patients",[2]; [6],6 (12%) n (%)
same,"Pain in extremity, patients",[2]; [6],3 (6%) n (%)
same,"Sensation of heaviness, patients",[2]; [6],1 (2%) n (%)
same,"Any muscle-related AE, patients",[2]; [7],3 (6%) n (%)
same,"Muscle spasms, patients",[2]; [7],2 (4%) n (%)
same,"Muscle-related AE leading to discontinuation, patients",[2]; [7],1 (2%) n (%)
same,"Musculoskeletal pain, patients",[2]; [7],1 (2%) n (%)
same,"Myalgia, patients",[2]; [7],0 n (%)
